# From patent US20130189255A1, “FUSIONS AND CONJUGATES OF INSULINOTROPIC AGENTS” (GLAXO GROUP LIMITED, priority 2008, published 2013)
# Several values for one entry are separate records, joined by “and”; a condition that tells them apart may be missing. Identical values can stand only once.
# Tested on: cynomolgus monkey
# Assay: PD in cynomolgus monkey: biscuit consumption
# Type: in vivo, cynomolgus monkey (Macaca fascicularis)
# Excerpt: Protein was extensively QCed (including SDS-PAGE, mass spec, activity assay:GLP-1R-BA, pH check, osmolarity check), filter sterilised and endotoxin removed. Protein with confimed low endotoxin (<0.05 EU/mg protein) was then used for the in vivo study. Six female cynomolgus monkeys (Macaca fascicularis; Charles River Laboratories BRF, Houston, Tex., Primate Products, Miami, Fla. and/or Covance Research Products, Inc., Alice, Tex.) were used in this study. The monkeys were approximately 2 to 9 years old (with a body weight range of approximately 2 to 5 kilograms) at initiation of dosing. The monkeys were housed individually in stainless-steel cages in an environmentally controlled room(s) (64 F to 84 F; 30 to 70% relative humidity) with a 12-hour light/dark cycle. The female monkeys were offered approximately 6 biscuits twice daily of Monkey Diet #5038 (PMI Nutrition International, Richmond, Ind.) and a daily allotment of fresh fruit. […] Dose was at 0.1 mg/Kg. On the days of dosing, the first feeding occurred within approximately 1 hour post dose for each monkey (extended up to 2.5 hours post dose if study-related procedures required animals to be out of their local housing for an extended period of time). The second feeding was no sooner then two hours following the first feeding. For the purpose of environmental enrichment, additional fruit, legume and/or vegetable (e.g., grapes, baby carrots, peanuts) was provided to each monkey at or around the time of viability check or as a method of reward after acclimation or study-related procedures. Filtered tap water (supplied by Aqua Pennsylvania, Inc. and periodically analyzed) was available ad libitum. Plasma samples (approx 2 ml) were collected from the femoral vessel at predose (0 hour) and nominally at 5 minutes (iv group only), 0.5, 4, 8, 24, 48, 96, 144, 192, 288, 336, 504 and 672 hours after dosing. (PK samples from one of the animals in the iv dose group were only collected to 24 h so this animal has been excluded from the PK fitting). Analysis of samples was by mass spectrometry, and fitting of the data was using WinNonLin fitting software. PK parameters were as follows for iv administration (n=2): T1/2 67 h, MRT 46 h, Vz 327 ml/Kg and Cl 3.3 ml/hr/Kg; and for sc administration (n=3): T1/2 68 h, MRT 98 h, Vz 306 ml/Kg and Cl 3.1 ml/hr/Kg. Bioavailability was calculated as 99%. A PK study was conducted in cynomolgus monkey as described above. The principal aim of this study was to determine the pharmacokinetic parameters for DAT0115 in cynomolgus monkey (as described in the previous example), but a secondary aim was to obtain an indication of the efficacy of the DAT0115 compound in the monkeys (without sufficient power in the study for statistical significance). To achieve this secondary aim, biscuit consumption by the monkeys was monitored during the course of the study.
substance,measurement,setting,value
Exendin 4 (G4S linker)3 DOM7h-14 dAb fusion [DAT0115],Biscuits consumed daily,"0.1 mg/Kg (iv), Day 1 (dosing day), individual monkey",0 (2×) and 6
same,Biscuits consumed daily,"0.1 mg/Kg (iv), Day 2, individual monkey",0 and 3 and 1
same,Biscuits consumed daily,"0.1 mg/Kg (iv), Day 3, individual monkey",0 (2×) and 9
same,Biscuits consumed daily,"0.1 mg/Kg (iv), Day 4, individual monkey",0 and 12 and 4
same,Biscuits consumed daily,"0.1 mg/Kg (iv), Day 5, individual monkey",1 and 12 and 6
same,Biscuits consumed daily,"0.1 mg/Kg (iv), Day 6, individual monkey",6 and 12 and 10
same,Biscuits consumed daily,"0.1 mg/Kg (iv), Day 7, individual monkey",6 and 12 and 11
same,Biscuits consumed daily,"0.1 mg/Kg (iv), Day −1 (pre-dose), individual monkey",12
same,Biscuits consumed daily,"0.1 mg/Kg (iv), Day −2 (pre-dose), individual monkey",12
same,Biscuits consumed daily,"0.1 mg/Kg (sc), Day 1 (dosing day), individual monkey",5 and 12 and 11
same,Biscuits consumed daily,"0.1 mg/Kg (sc), Day 2, individual monkey",0 (2×) and 12
same,Biscuits consumed daily,"0.1 mg/Kg (sc), Day 3, individual monkey",4 and 2 and 11
same,Biscuits consumed daily,"0.1 mg/Kg (sc), Day 4, individual monkey",11 and 12 (2×)
same,Biscuits consumed daily,"0.1 mg/Kg (sc), Day 5, individual monkey",7 and 12 and 8
same,Biscuits consumed daily,"0.1 mg/Kg (sc), Day 6, individual monkey",11 and 12 (2×)
same,Biscuits consumed daily,"0.1 mg/Kg (sc), Day 7, individual monkey",12
same,Biscuits consumed daily,"0.1 mg/Kg (sc), Day −1 (pre-dose), individual monkey",12
same,Biscuits consumed daily,"0.1 mg/Kg (sc), Day −2 (pre-dose), individual monkey",12
same,food consumption in the days following dosing,"0.1 mg/Kg iv or sc, all monkeys, not powered for significance",trend towards reduction in food consumption
